Data taken from patent EP3394284B1, “ENZYMATIC METHOD FOR THE EVALUATION OF XYLOSE” (Venter Pharma, S.L, priority 2015, dated 2017).

How the values were obtained:
[1] = target: T1, XylB-wt2 (Caulobacter vibrioides, UniProt B8H1Z0); assay: Substrate specificity: XylB-wt2 activity with mono- and disaccharides (NADH formation at 340 nm); assay type: biochemical, C. crescentus NA1000
T1 construct: made in house; host or cells: E. coli BL21(DE3)
T1 sequence (B8H1Z0 1-248): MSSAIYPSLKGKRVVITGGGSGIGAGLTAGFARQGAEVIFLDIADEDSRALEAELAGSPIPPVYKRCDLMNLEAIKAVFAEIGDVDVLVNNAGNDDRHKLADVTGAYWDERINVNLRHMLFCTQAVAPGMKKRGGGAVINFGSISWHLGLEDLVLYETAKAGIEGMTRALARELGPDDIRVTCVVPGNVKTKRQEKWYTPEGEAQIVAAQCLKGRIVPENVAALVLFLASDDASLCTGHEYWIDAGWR
Description: Xylose dehydrogenase activity in each CFE was evaluated. XylB catalyzes the oxidation of D-xylose with concomitant reduction of its cofactor NAD^+, to yield NADH. Activity can be determined by measuring the formation of NADH by spectrophotometric monitoring. Variations of absorbance at 340 nm are proportional to consumed D-xylose concentration in the reaction (ε^NADH = 6220 cm^-1M^-1). Activity assays were performed at RT and pH 8.0 (Figure 5). Absorbance at 340 nm (OD) was spectrophotometrically recorded along the time in the presence of each CFE sample containing expressed XylB: wt1, wt2, 6His1 and 6His2. […] Volumes of CFE samples used in the assays are shown in brackets, as well as when the sample has been diluted 10 times (dil 1/10). Slopes are proportional to enzyme activity.
The enzyme XylB-wt2 was characterized to determine if it is possible its application in sensitive and reliable D-xylose detection and quantification. […] In order to confirm the substrate specificity, 9 different sugars (7 monosaccharides and 2 disaccharides) were assayed as XylB-wt substrates. […] XylB-wt2 specific activity measured with different mono and disaccharides.

[2] = target: T1, XylB-wt2; assay: Steady-state kinetic assays of purified XylB-wt2 for substrates and cofactor; assay type: biochemical, C. crescentus NA1000; settings: for activity as cofactor of XylB-wt2: NAD^+ and NADP^+ both assayed, 'the first one' = NAD^+ (NADP^+ gave no activity)
Description: (§1) Steady-state kinetic assays for XylB activity were measured in triplicate at 25°C in 96-well plates (total volume of 0.3 mL). Measurements of kinetic parameters for D-xylose were performed with purified XylB-wt2 at eight different D-xylose concentrations and with saturating concentration of NAD^+ (0.5 mM). […] Xylose dehydrogenase activity of purified XylB-wt2 was measured at RT and pH 8.0.
(§2) Kinetic parameters of XylB-wt2 for the cofactor NAD^+ were also calculated.
(§3) The calculated homohexameric quaternary structure should be considered when kinetic parameters are calculated.

[3] = target: T2, 6His-tagged XylB (Caulobacter vibrioides, UniProt B8H1Z0); settings: data taken from Stephens C, 2007; cited from earlier work
T2 construct: 6His
T2 sequence (B8H1Z0 1-248): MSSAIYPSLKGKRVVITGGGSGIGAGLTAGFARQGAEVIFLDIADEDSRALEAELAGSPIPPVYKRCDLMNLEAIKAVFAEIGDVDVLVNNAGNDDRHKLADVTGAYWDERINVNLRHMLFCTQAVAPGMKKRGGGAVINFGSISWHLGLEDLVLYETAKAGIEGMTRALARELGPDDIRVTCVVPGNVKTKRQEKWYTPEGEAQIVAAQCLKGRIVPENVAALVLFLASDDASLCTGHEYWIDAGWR

[4] = target: T3, Strep-TEV-XylB (Caulobacter vibrioides, UniProt B8H1Z0); settings: data taken from Toivari M, 2012a; pH 9.0; cited from earlier work
T3 construct: Strep tag; TEV cleavage site
T3 sequence (B8H1Z0 1-248): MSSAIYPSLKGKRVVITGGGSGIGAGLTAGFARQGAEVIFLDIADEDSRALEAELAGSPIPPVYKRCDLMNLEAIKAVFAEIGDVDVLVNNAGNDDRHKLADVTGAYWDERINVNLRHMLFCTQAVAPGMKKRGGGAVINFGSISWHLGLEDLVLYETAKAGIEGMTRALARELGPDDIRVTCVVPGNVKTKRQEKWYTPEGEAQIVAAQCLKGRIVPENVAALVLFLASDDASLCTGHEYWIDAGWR

[5] = substrate: NC(=O)c1ccc[n+]([C@@H]2O[C@H](COP(=O)([O-])OP(=O)(O)OC[C@H]3O[C@@H](n4cnc5c(N)ncnc54)[C@H](O)[C@@H]3O)[C@@H](O)[C@H]2O)c1; assay: Steady-state kinetic assays of purified XylB-wt2 for substrates and cofactor; assay type: biochemical, C. crescentus NA1000; settings: other: 25°C, pH 8.0, sugars with NAD^+ 0.5 mM, NAD^+ with D-xylose 5 mM
Description: as §1, §2, §3

[6] = sugar concentration 100 mM, relative to D-xylose at 5 mM
[7] = considering the enzyme as a homohexameric protein
[8] = 25°C, pH 8.0, sugars with NAD^+ 0.5 mM, NAD^+ with D-xylose 5 mM, enzyme assumed monomer
[9] = sugar concentration 5 mM, relative to D-xylose

## 4-O-β-galactopyranosyl-D-xylose [Gaxilose]
[1]; sugar concentration 100 mM
  Specific Activity (U/mg): 0.7 U/mg
[1]; [6]
  Relative Activity (%): 2%

## OC[C@H]1O[C@H](O[C@H]2[C@H](O)[C@@H](O)C(O)O[C@@H]2CO)[C@H](O)[C@@H](O)[C@@H]1O (mixture of isomers) [Maltose]
[1]; sugar concentration 100 mM
  Specific Activity (U/mg): 0.0 U/mg
[1]; [6]
  Relative Activity (%): 0%

## O=C(CO)[C@@H](O)[C@H](O)[C@H](O)CO [D-Fructose]
[1]; sugar concentration 100 mM
  Specific Activity (U/mg): 0.0 U/mg
[1]; [6]
  Relative Activity (%): 0%

## NC(=O)c1ccc[n+]([C@@H]2O[C@H](COP(=O)([O-])OP(=O)(O)OC[C@H]3O[C@@H](n4cnc5c(N)ncnc54)[C@H](OP(=O)(O)O)[C@@H]3O)[C@@H](O)[C@H]2O)c1 [NADP^+]
[2]
  activity as cofactor of XylB-wt2: only displayed activity with the first one

## NC(=O)c1ccc[n+]([C@@H]2O[C@H](COP(=O)([O-])OP(=O)(O)OC[C@H]3O[C@@H](n4cnc5c(N)ncnc54)[C@H](O)[C@@H]3O)[C@@H](O)[C@H]2O)c1 [NAD^+]
[3]
  Vmax (U·mg^-1): 20.5 U·mg^-1
[4]
  Km: 460 ± 50 µM
  kcat: 31 ± 1.08 s⁻¹
[2]
  activity as cofactor of XylB-wt2: only displayed activity with the first one
[2]; [7]
  Vmax (U·mg^-1): 30.1 ±1.0 U·mg^-1

## D-Galactose
[1]; sugar concentration 100 mM
  Specific Activity (U/mg): 0.5 U/mg
[1]; [6]
  Relative Activity (%): 2%

## D-Glucose
[2]; [8]
  Vmax (U·mg^-1): 10.7 ±0.1 U·mg^-1
  kcat: 4.78 ± 0.833 s⁻¹
[2]; [7]
  Vmax (U·mg^-1): 10.7 ±0.1 U·mg^-1
[1]; sugar concentration 100 mM
  Specific Activity (U/mg): 3.9 U/mg
[1]; [6]
  Relative Activity (%): 13%

## D-Mannose
[1]; sugar concentration 100 mM
  Specific Activity (U/mg): 0.0 U/mg
[1]; [6]
  Relative Activity (%): 0%

## D-Ribose
[1]; sugar concentration 100 mM
  Specific Activity (U/mg): 4.4 U/mg
[1]; [6]
  Relative Activity (%): 15%

## D-Xylose
[3]
  Km: 760 µM
  Vmax (U·mg^-1): 27.5 U·mg^-1
[4]
  Km: 80 ± 20 µM
  kcat: 22.67 ± 1.08 s⁻¹
[2]; 25°C, pH 8.0, sugars with NAD^+ 0.5 mM, NAD^+ with D-xylose 5 mM
  Km: 41 ± 5 µM
[2]; [8]
  Vmax (U·mg^-1): 30.2 ±1.0 U·mg^-1
  kcat: 13.5 ± 0.583 s⁻¹
[2]; XylB-wt2, pH 8.0
  catalytic efficiencies (kcat/KM) ratio D-xylose/ D-glucose: 15000
[2]; [7]
  Km: 41 ± 5 µM
  Vmax (U·mg^-1): 30.2 ±1.0 U·mg^-1
[1]; sugar concentration 5 mM
  Specific Activity (U/mg): 30.0 U/mg
[1]; [9]
  Relative Activity (%): 100%

## L-Arabinose
[1]; sugar concentration 5 mM
  Specific Activity (U/mg): 4.8 U/mg
[1]; [9]
  Relative Activity (%): 16%

B1: XylB-wt2 (Caulobacter vibrioides NA1000) (protein)
chain: MSSAIYPSLKGKRVVITGGGSGIGAGLTAGFARQGAEVIFLDIADEDSRALEAELAGSPIPPVYKRCDLMNLEAIKAVFAEIGDVDVLVNNAGNDDRHKLADVTGAYWDERINVNLRHMLFCTQAVAPGMKKRGGGAVINFGSISWHLGLEDLVLYETAKAGIEGMTRALARELGPDDIRVTCVVPGNVKTKRQEKWYTPEGEAQIVAAQCLKGRIVPENVAALVLFLASDDASLCTGHEYWIDAGWR
notes: made in house; host or cells: E. coli BL21(DE3)
[5]
  Km: 78 ± 10 µM
  Vmax: 30.1 ±1.0 U·mg^-1
  kcat: 13.5 ± 1.08 s⁻¹
  kcat/Km: 173080 M⁻¹ s⁻¹
